{"source": "patent USRE48461E1", "about": "“Modulation of androgen receptor expression” (Ionis Pharmaceuticals, Inc., priority 2012, dated 2021)", "key": {"AR mRNA [1]": {"test_system": "AR mRNA", "assay": "Antisense inhibition of human AR in HuVEC cells, single concentration (electroporation, qRT-PCR RTS3559)", "type": "cell-based", "how_it_was_run": "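HuVEC cells electroporated with antisense oligonucleotides at a single concentration. AR mRNA quantified by qRT-PCR using human primer-probe set RTS3559 and normalised to total RNA content by RIBOGREEN.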"}, "AR mRNA [2]": {"test_system": "AR mRNA", "assay": "Dose-dependent antisense inhibition of human AR in HuVEC cells (electroporation, qRT-PCR RTS3559, IC50)", "type": "cell-based", "settings": "HuVEC", "how_it_was_run": "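HuVEC cells dosed with antisense oligonucleotides by electroporation and treated approximately 16 hours. AR mRNA quantified by real-time qPCR with primer probe set RTS3559 and normalised to total RNA by RIBOGREEN; IC50 from dose-response.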"}, "[3]": {"settings": "Table 30, electroporation, approximately 16 hours"}, "[4]": {"settings": "Table 31, electroporation, approximately 16 hours"}, "[5]": {"settings": "Table 34, electroporation, approximately 16 hours"}, "[6]": {"settings": "Table 32, electroporation, approximately 16 hours"}}, "note": "Oligonucleotides are written 5' to 3', each unit as a sugar letter and its base; * is a phosphorothioate linkage, no mark a phosphodiester; rarer units and linkages stand in square brackets, end groups in braces. Plain capitals give the bases only. e = 2'-O-(2-methoxyethyl) (MOE); k = constrained ethyl (cEt); [5mC] = 5-methylcytosine; d = 2'-deoxy (DNA)"}
{"substance": "583642 (antisense kA*kG*kT*dG*dT*d[5mC]*d[5mC]*dA*d[5mC]*dT*dG*dA*dA*kG*kT*kA) [compound 583642]", "values": [{"measurement": "% inhibition", "setting": "AR mRNA [1]; 500 nM ASO, ~24 h, Table 17", "value": 42, "unit": "%"}, {"measurement": "percent inhibition of AR, 46.9 nM", "setting": "AR mRNA [2]; [3]", "value": 18, "unit": "%"}, {"measurement": "percent inhibition of AR, 187.5 nM", "setting": "AR mRNA [2]; [3]", "value": 35, "unit": "%"}, {"measurement": "percent inhibition of AR, 750.0 nM", "setting": "AR mRNA [2]; [3]", "value": 67, "unit": "%"}, {"measurement": "percent inhibition of AR, 3000.0 nM", "setting": "AR mRNA [2]; [3]", "value": 74, "unit": "%"}, {"measurement": "IC50", "setting": "AR mRNA [2]; [3]", "value": 460, "unit": "nM"}]}
{"substance": "583713 (antisense kA*kT*k[5mC]*d[5mC]*dT*dT*dG*dA*dG*d[5mC]*dT*dT*dG*kG*k[5mC]*kT) [compound 583713]", "values": [{"measurement": "% inhibition", "setting": "AR mRNA [1]; 500 nM ASO, ~24 h, Table 18", "value": 36, "unit": "%"}, {"measurement": "percent inhibition of AR, 46.9 nM", "setting": "AR mRNA [2]; [4]", "value": 29, "unit": "%"}, {"measurement": "percent inhibition of AR, 187.5 nM", "setting": "AR mRNA [2]; [4]", "value": 51, "unit": "%"}, {"measurement": "percent inhibition of AR, 750.0 nM", "setting": "AR mRNA [2]; [4]", "value": 67, "unit": "%"}, {"measurement": "percent inhibition of AR, 3000.0 nM", "setting": "AR mRNA [2]; [4]", "value": 74, "unit": "%"}, {"measurement": "IC50", "setting": "AR mRNA [2]; [4]", "value": 220, "unit": "nM"}]}
{"substance": "583736 (antisense kT*kG*kG*dA*dT*d[5mC]*dA*d[5mC]*dT*dT*d[5mC]*dG*d[5mC]*kG*k[5mC]*kA) [compound 583736]", "values": [{"measurement": "% inhibition", "setting": "AR mRNA [1]; 500 nM ASO, ~24 h, Table 18", "value": 47, "unit": "%"}, {"measurement": "percent inhibition of AR, 46.9 nM", "setting": "AR mRNA [2]; [3]", "value": 21, "unit": "%"}, {"measurement": "percent inhibition of AR, 187.5 nM", "setting": "AR mRNA [2]; [3]", "value": 38, "unit": "%"}, {"measurement": "percent inhibition of AR, 750.0 nM", "setting": "AR mRNA [2]; [3]", "value": 60, "unit": "%"}, {"measurement": "percent inhibition of AR, 3000.0 nM", "setting": "AR mRNA [2]; [3]", "value": 63, "unit": "%"}, {"measurement": "IC50", "setting": "AR mRNA [2]; [3]", "value": 510, "unit": "nM"}]}
{"substance": "583731 (antisense k[5mC]*kG*k[5mC]*dG*d[5mC]*dA*d[5mC]*dG*d[5mC]*dT*d[5mC]*dT*dG*kG*kA*kA) [compound 583731]", "values": [{"measurement": "% inhibition", "setting": "AR mRNA [1]; 500 nM ASO, ~24 h, Table 18", "value": 34, "unit": "%"}, {"measurement": "percent inhibition of AR, 46.9 nM", "setting": "AR mRNA [2]; [4]", "value": 18, "unit": "%"}, {"measurement": "percent inhibition of AR, 187.5 nM", "setting": "AR mRNA [2]; [4]", "value": 24, "unit": "%"}, {"measurement": "percent inhibition of AR, 750.0 nM", "setting": "AR mRNA [2]; [4]", "value": 47, "unit": "%"}, {"measurement": "percent inhibition of AR, 3000.0 nM", "setting": "AR mRNA [2]; [4]", "value": 58, "unit": "%"}, {"measurement": "IC50", "setting": "AR mRNA [2]; [4]", "value": 1310, "unit": "nM"}]}
{"substance": "583999 (kA*k[5mC]*k[5mC]*dA*dT*dG*d[5mC]*d[5mC]*dG*d[5mC]*d[5mC]*dA*dG*kG*kG*kT; antisense) [compound 583999]", "values": [{"measurement": "% inhibition", "setting": "AR mRNA [1]; Table 22, 500 nM oligonucleotide, electroporation, approximately 24 hours, relative to untreated control", "value": 29, "unit": "%"}, {"measurement": "percent inhibition of AR, 46.9 nM", "setting": "AR mRNA [2]; [5]", "value": 13, "unit": "%"}, {"measurement": "percent inhibition of AR, 187.5 nM", "setting": "AR mRNA [2]; [5]", "value": 12, "unit": "%"}, {"measurement": "percent inhibition of AR, 750.0 nM", "setting": "AR mRNA [2]; [5]", "value": 30, "unit": "%"}, {"measurement": "percent inhibition of AR, 3000.0 nM", "setting": "AR mRNA [2]; [5]", "value": 64, "unit": "%"}, {"measurement": "IC50", "setting": "AR mRNA [2]; [5]", "value": 1530, "unit": "nM"}]}
{"substance": "583871 (kA*kT*kA*d[5mC]*dT*d[5mC]*dA*dG*d[5mC]*dA*dG*dT*dA*kT*k[5mC]*kT; antisense) [compound 583871]", "values": [{"measurement": "% inhibition", "setting": "AR mRNA [1]; Table 20, 500 nM oligonucleotide, electroporation, approximately 24 hours, relative to untreated control", "value": 47, "unit": "%"}, {"measurement": "percent inhibition of AR, 46.9 nM", "setting": "AR mRNA [2]; [6]", "value": 28, "unit": "%"}, {"measurement": "percent inhibition of AR, 187.5 nM", "setting": "AR mRNA [2]; [6]", "value": 30, "unit": "%"}, {"measurement": "percent inhibition of AR, 750.0 nM", "setting": "AR mRNA [2]; [6]", "value": 68, "unit": "%"}, {"measurement": "percent inhibition of AR, 3000.0 nM", "setting": "AR mRNA [2]; [6]", "value": 87, "unit": "%"}, {"measurement": "IC50", "setting": "AR mRNA [2]; [6]", "value": 280, "unit": "nM"}]}
{"substance": "549457 (kT*kT*kG*dA*dT*dT*dT*dA*dA*dT*dG*dG*dT*kT*kG*k[5mC]) [compound 549457]", "values": [{"measurement": "% inhibition", "setting": "AR mRNA [1]; 250 nM ASO, ~24 h, Table 7", "value": 67, "unit": "%"}, {"measurement": "% inhibition", "setting": "AR mRNA [1]; 500 nM ASO, electroporation, ~24 h, Table 2", "value": 98, "unit": "%"}, {"measurement": "% inhibition", "setting": "AR mRNA [1]; 500 nM ASO, ~24 h, Table 5", "value": 98, "unit": "%"}, {"measurement": "percent inhibition of AR", "setting": "AR mRNA [2]; 31.25 nM, ~16 h, Table 6", "value": 40, "unit": "%"}, {"measurement": "percent inhibition of AR", "setting": "AR mRNA [2]; 31.25 nM, ~16 h, Table 8", "value": 34, "unit": "%"}, {"measurement": "percent inhibition of AR", "setting": "AR mRNA [2]; 55.6 nM, ~16 h, Table 4", "value": 70, "unit": "%"}, {"measurement": "percent inhibition of AR", "setting": "AR mRNA [2]; 62.5 nM, ~16 h, Table 6", "value": 57, "unit": "%"}, {"measurement": "percent inhibition of AR", "setting": "AR mRNA [2]; 62.5 nM, ~16 h, Table 8", "value": 44, "unit": "%"}, {"measurement": "percent inhibition of AR", "setting": "AR mRNA [2]; 125.0 nM, ~16 h, Table 6", "value": 78, "unit": "%"}, {"measurement": "percent inhibition of AR", "setting": "AR mRNA [2]; 125.0 nM, ~16 h, Table 8", "value": 75, "unit": "%"}, {"measurement": "percent inhibition of AR", "setting": "AR mRNA [2]; 166.7 nM, ~16 h, Table 4", "value": 95, "unit": "%"}, {"measurement": "percent inhibition of AR", "setting": "AR mRNA [2]; 500.0 nM, ~16 h, Table 4", "value": 99, "unit": "%"}, {"measurement": "percent inhibition of AR", "setting": "AR mRNA [2]; 500.0 nM, ~16 h, Table 6", "value": 96, "unit": "%"}, {"measurement": "percent inhibition of AR", "setting": "AR mRNA [2]; 500.0 nM, ~16 h, Table 8", "value": 93, "unit": "%"}, {"measurement": "percent inhibition of AR", "setting": "AR mRNA [2]; 1000.0 nM, ~16 h, Table 6", "value": 96, "unit": "%"}, {"measurement": "percent inhibition of AR", "setting": "AR mRNA [2]; 1000.0 nM, ~16 h, Table 8", "value": 96, "unit": "%"}, {"measurement": "percent inhibition of AR", "setting": "AR mRNA [2]; 1500.0 nM, ~16 h, Table 4", "value": 99, "unit": "%"}, {"measurement": "IC50", "setting": "AR mRNA [2]; ~16 h, Table 4", "value": 18, "unit": "nM"}, {"measurement": "IC50", "setting": "AR mRNA [2]; ~16 h, Table 6", "value": 30, "unit": "nM"}, {"measurement": "IC50", "setting": "AR mRNA [2]; ~16 h, Table 8", "value": 60, "unit": "nM"}]}
{"substance": "569229 (antisense eG*eT*kT*kG*kA*dT*dT*dT*dA*dA*dT*dG*kG*kT*kT*eG) [compound 569229]", "values": [{"measurement": "% inhibition", "setting": "AR mRNA [1]; 1,000 nM ASO, ~24 h, Table 13", "value": 57, "unit": "%"}, {"measurement": "percent inhibition of AR", "setting": "AR mRNA [2]; 31.25 nM, ~16 h, Table 14", "value": 16, "unit": "%"}, {"measurement": "percent inhibition of AR", "setting": "AR mRNA [2]; 62.5 nM, ~16 h, Table 14", "value": 14, "unit": "%"}, {"measurement": "percent inhibition of AR", "setting": "AR mRNA [2]; 125.0 nM, ~16 h, Table 14", "value": 36, "unit": "%"}, {"measurement": "percent inhibition of AR", "setting": "AR mRNA [2]; 500.0 nM, ~16 h, Table 14", "value": 74, "unit": "%"}, {"measurement": "percent inhibition of AR", "setting": "AR mRNA [2]; 1000.0 nM, ~16 h, Table 14", "value": 84, "unit": "%"}, {"measurement": "IC50", "setting": "AR mRNA [2]; ~16 h, Table 14", "value": 220, "unit": "nM"}]}
{"substance": "560099 (kG*kG*kT*dT*dG*dA*dT*dT*dT*dA*dA*dT*dG*kG*kT*kT) [compound 560099]", "values": [{"measurement": "% inhibition", "setting": "AR mRNA [1]; 500 nM ASO, ~24 h, Table 5", "value": 95, "unit": "%"}, {"measurement": "percent inhibition of AR", "setting": "AR mRNA [2]; 31.25 nM, ~16 h, Table 6", "value": 13, "unit": "%"}, {"measurement": "percent inhibition of AR", "setting": "AR mRNA [2]; 62.5 nM, ~16 h, Table 6", "value": 29, "unit": "%"}, {"measurement": "percent inhibition of AR", "setting": "AR mRNA [2]; 125.0 nM, ~16 h, Table 6", "value": 58, "unit": "%"}, {"measurement": "percent inhibition of AR", "setting": "AR mRNA [2]; 500.0 nM, ~16 h, Table 6", "value": 89, "unit": "%"}, {"measurement": "percent inhibition of AR", "setting": "AR mRNA [2]; 1000.0 nM, ~16 h, Table 6", "value": 94, "unit": "%"}, {"measurement": "IC50", "setting": "AR mRNA [2]; ~16 h, Table 6", "value": 100, "unit": "nM"}]}
